Assay results reported in patent publication US6416737B1, “Increasing bone strength with selected bisphosphonates” (Board of Trustees of the University of Arkansas, priority 1998, dated 2002).
Read-outs that look alike come from different tables or passages of the source. Marks after values point to notes of the source that are not given here. Ends that are not written are not given here.

Legend:
[1] = system: osteoblastic cells and osteocytic cells; test: Anti-apoptotic effects of estrogens on osteoblastic and osteocytic cells in vitro; format: cell-based
MLO-Y4 osteocytic cells = conditions: for effect on the prevention of MLO-Y4 cell apoptosis by sCT / effect on the anti-apoptotic effect of alendronate, IG-9402 and etidronate: inhibitor 30 min, 10^−6 M dexamethasone 6 h; for effect on the prevention of MLO-Y4 cell apoptosis by sCT: 5 ng/ml sCT 1 h; for effect on the anti-apoptotic effect of alendronate, IG-9402 and etidronate: 10^−7 M bisphosphonate 1 h; for percentage of cells stained with trypan blue (induction of apoptosis): MLO-Y4, 6 h, dexamethasone 10^−6 M, etoposide 50 μg/ml, TNF-α 1 nM; for inhibition of glucocorticoid-induced apoptosis: then dexamethasone 10^−6 M for 6 h
Description: The murine long bone-derived osteocytic cell line MLO-Y4 was provided by Dr. Lynda Bonewald (University of Texas Health Center at San Antonio, Tex.). Cells were cultured in phenol red-free αMEM supplemented with 5% FBS, 5% bovine calf serum, 100 U/ml penicillin and 100 μg/ml streptomycin. Cells were plated at 1-2×10^4 cells/cm^2 on collagen type I coated plates, as described previously (Kato, et al., 1997. J. Bone Miner. Res. 12:2014-2023). Murine calvaria cells were obtained from neonatal (3- to 6-day old) C57BL/6J mice by controlled digestion with collagenase, as previously described (Bellido, et al., 1997. Endocrinology 138:3666-3676). After isolation, cells were cultured in 10% FBS at 1-2×10^4 cells/cm^2 until 90-95% confluence. Subsequently, cells were harvested and frozen for later use. UMR-106-06 cells were cultured in phenol red-free MEM supplemented with 10% FBS, 1% non-essential aminoacids, 100 U/ml penicillin, and 100 μg/ml streptomycin (Sakagami, et al., Manolagas. 1993. J. Bone Miner. Res. 8:811-816).
Nonadherent cells were combined with adherent cells released from the culture dish using trypsin-EDTA, resuspended in medium containing serum, and collected by centrifugation. […] At least 100 cells per condition were counted.
(§1) MLO-Y4 osteocytic cells and calvaria osteoblastic cells were treated for 1 hour in the absence or presence of different BPs or sCT. Subsequently, dexamethasone, etoposide or TNF-α were added to obtain final concentrations of 10^−6 M, […], or 1 nM, respectively, and cells were incubated for additional 6 h. The effect of PD98059 (50 μM) or UO126 (1 μM) was evaluated by pretreating the cells with the inhibitors for 30 min before adding the BPs or sCT. In the experiment using the membrane permeable caspase inhibitor DEVD, cells were cultured for 1 hour with 50 nM DEVD-CHO and subsequently the pro-apoptotic agents were added to reach the final concentrations indicated above. […] At least 500 cells from fields selected by systematic random sampling were examined for each experimental condition. […] The TUNEL reaction was performed according to the manufacturer's instructions, using 0.15% CuSO4 for color enhancement. Negative controls were made by omitting the transferase from the reaction. Cells presenting brown nuclear staining were considered positive. More than 500 cells per condition were analyzed. Apoptosis of parental MLO-Y4 or calvaria cells was quantified by trypan blue staining (Jilka, et al., 1998. J. Bone Miner. Res. 13:793-802). Nonadherent cells were combined with adherent cells released from the culture dish using trypsin-EDTA, resuspended in medium containing serum, and collected by centrifugation. […] At least 100 cells per condition were counted.
MLO-Y4 cells were incubated for 1 h in vehicle or 50 nM DEVD-CHO. Subsequently, etoposide, TNF-α, or dexamethasone (Dex) were added at final concentrations of 50 μg/ml, 1 nM, or 10^−6 M, respectively, and cells were incubated for additional 6 h. Dead cells were enumerated by trypan blue uptake.
The percentage of dead cells was determined by trypan blue uptake, as in Methods and Materials. Bars represent the mean ±S.D. of three independent measurements.
Subsequently, etoposide, TNF-α, or dexarnethasone were added to reach final concentrations of 50 μg/ml, 1 nM, or 10^−6 M, respectively, and cells were cultured for 6 h, as in FIG. 1. The percentage of dead cells was determined by trypan blue uptake. Bars represent the mean ±S.D. of three independent measurements. Data were analyzed by two-way ANOVA.

[2] = system: MLO-Y4 cells stably transduced with GFP; test: Apoptosis by nuclear morphology of MLO-Y4 cells transduced with nuclear GFP; format: cell-based, murine; conditions: absence of dexamethasone; 10^−7 M
Description: Supernatants containing retroviral particles were collected 24-48 h after transfection, and used immediately to infect cell cultures. […] Subsequently, cells were exposed to the supernatants containing the viral particles once more before being trypsinized and plated at low density.
Cells presenting brown nuclear staining were considered positive. More than 500 cells per condition were analyzed. […] At least 100 cells per condition were counted.

[3] = system: osteoblastic cells derived from murine calvaria; test: Apoptosis of osteoblastic cells derived from murine calvaria by trypan blue uptake; format: cell-based; conditions: 6 h; for induction of apoptosis of osteoblastic cells: etoposide 50 μg/ml, TNF-α, dexamethasone 10^−6 M
ERK1/2 = ERK1/2 phosphorylation in MLO-Y4 cells by Western blot; format: cell-based, murine; conditions: for effect on bisphosphonate-induced phosphorylation of ERKs: 50 μM PD98059 or 1 μM UO126 pretreatment, 10^−7 M bisphosphonate 2 min
Description: Monolayers were washed with cold 20 mM Tris-HCl (pH 7.5), 150 mM NaCl, 1 mM sodium orthovanadate and lysed in the lysis buffer mentioned above. Insoluble material was pelleted in a microcentrifuge at 14,000×rpm for 10 mn. […] Proteins (10 μg) were separated on 7.5% SDS-polyacrylamide gels and electrotransferred to a polyvinylidene difluoride membrane. Immunoblotting was performed using a mouse monoclonal antibody recognizing tyrosine phosphorylated ERK1/2, or a rabbit polyclonal antibody recognizing total ERK1/2, followed by incubation with either an antimouse or an antirabbit antibody conjugated with horseradish peroxidase. Blots were developed using Chemiluminescence according to the manufacturer's recommendations. Quantitation of the intensity of the bands in the autoradiograms was performed using a scanner (Microtek Lab., Redondo Beach, Calif.).

osteoclast = conditions: cited from earlier work
osteocytic MLO-Y4 cells = test: TUNEL reaction in MLO-Y4 cells; format: cell-based, murine; conditions: 10^−7 M alendronate 1 h and/or 10^−6 M dexamethasone 6 h
Description: as §1

[4] = system: osteocyte and osteoblast apoptosis in murine vertebral cancellous bone; test: Murine model of glucocorticoid excess: TUNEL in vertebral bone sections and spinal BMD by DEXA; format: in vivo, Male Swiss Webster mice; conditions: prednisolone 2.1 mg/kg/day pellets, alendronate 0.75 mg/kg/d s.c., 56 days, mean ±SD
Excerpt: To adjust for the difference in the metabolic rate in mice compared to that in humans, the daily glucocorticoid dose was divided by the metabolic weight, i.e. the weight in kg to the 3/4 power (Borchard, et al., 1992. Drug dosage in laboratory animals: a handbook. CRC Press, Inc., Boca Raton, Fla. 514 pp.; Kleiber, M. 1961. The fire of life: an introduction to animal energetics. New York). […] One control group received saline injections with placebo pellet implantation while another group received saline injections plus prednisolone pellets. Dual-energy X-ray absorptiometry (DEXA) was used to determine spinal bone mineral density (spinal BMD) at the end of the 56-day experiment, as previously described (Weinstein et al., 1998. J. Clin. Invest. 102:274-282).
Sections of vertebral bone (L1 to L5) were mounted on silane-coated glass slides (Scientific Device Lab, Inc., Des Plains, Ill.), deplasticized and incubated in 10 mM citrate buffer, pH 7.6, in a microwave oven at 98° C. for 5 minutes (Jilka, et al., 1998. J. Bone Miner. Res. 13:793-802). Slides were then incubated with 0.5% pepsin for 30 minutes at 37° C. Apoptotic cells were detected by the TUNEL reaction as described above using 0.15% CuSO4 for color enhancement of the diaminobenzidine in sections counterstained with 1% methyl green. The TUNEL reaction is noted within cell nuclei and the cells whose nuclei were clearly brown from the streptavidin-horse radish peroxidase conjugate instead of blue-green from the methyl green were interpreted as positive. Plastic-embledded sections of weaned rat mammary tissue were used as a positive control. Negative controls were made by omitting the transferase from the TUNEL reaction. Morphological changes characteristic of apoptosis were carefully examined to minimize ambiguity regarding the interpretation of results. […] Osteocytes were identified inside lacunae in mineralized bone (FIG. 11A). Osteoblasts were identified as cuboidal cells lining the osteoid-covered trabecular perimeter (FIG. 11B).

C[C@]12CC[C@@H]3c4ccc(O)cc4CC[C@H]3[C@@H]1CC[C@H]2O [17α-estradiol]
anti-apoptotic effects on osteoblastic cells in vitro and osteocytic cells [1]: potent anti-apoptotic effects

C[C@]12CC[C@@H]3c4ccc(O)cc4CC[C@H]3[C@@H]1CC[C@@H]2O [17β-estradiol]
anti-apoptotic effects on osteoblastic cells in vitro and osteocytic cells [1]: potent anti-apoptotic effects

C[C@]12CC[C@@H]3c4ccc(O)cc4C[C@@H](CCCCCCCCC[S+]([O-])CCCC(F)(F)C(F)(F)F)[C@H]3[C@@H]1CC[C@@H]2O (some centres unmarked) [ICI 182780]
effect on the anti-apoptotic effects of the estrogen compounds [1]: diminished

CN(C)CCC(N)(P(=O)(O)O)P(=O)(O)O [IG-9402, 1-amino-3-(N,N-dimethylamino)-propyliden-1,1-bisphosphonic acid]
prevention of apoptosis induced by etoposide or TNF-α (MLO-Y4 osteocytic cells; 10^−7 M, 1 h pretreatment, 6 h): prevented apoptosis
cell viability in the absence of pro-apoptotic stimuli (MLO-Y4 osteocytic cells; 10^−10 to 10^−3 M): did not affect cell viability
inhibitory effect on glucocorticoid-induced apoptosis at high concentrations (MLO-Y4 osteocytic cells; concentrations higher than 10^−6 M): persisted at high concentrations
proportion of cells exhibiting chromatin condensation and/or nuclear fragmentation versus untreated [2]: no significant differences
inhibition of apoptosis of osteoblastic cells induced by dexamethasone, TNF-α and etoposide ([3]; 10^−7 M, 1 h pretreatment): inhibited apoptosis
earliest time at which increased ERK phosphorylation was observed (ERK1/2; 10^−7 M): 0.5 min
phosphorylation of ERK 1 and 2 (ERK1/2; 10^−7 M): rapid and transient increase
antiresorptive activity / effect on osteoclast (osteoclast): lacks anti-resorptive activity
potency ratio to affect the osteoclast, relative to pamidronate (osteoclast): ⅙
antiresorptive activity / effect on osteoclast (osteoclast; listed as IG9204): do not block osteoclast activity at all
antiresorptive activity / effect on osteoclast (osteoclast; listed as IG9402): devoid of any antiresorptive activity

COc1cccc(-c2cc(=O)c3ccccc3o2)c1N [PD98059]
effect on the prevention of MLO-Y4 cell apoptosis by sCT (MLO-Y4 osteocytic cells): abolished
effect on the anti-apoptotic effect of alendronate, IG-9402 and etidronate (MLO-Y4 osteocytic cells): abrogated the anti-apoptotic effect
effect on bisphosphonate-induced phosphorylation of ERKs (ERK1/2): abolished

N#CC(=C(/N)Sc1ccccc1N)/C(C#N)=C(\N)Sc1ccccc1N [U0126]
effect on the prevention of MLO-Y4 cell apoptosis by sCT (MLO-Y4 osteocytic cells): abolished
effect on the anti-apoptotic effect of alendronate, IG-9402 and etidronate (MLO-Y4 osteocytic cells): abrogated the anti-apoptotic effect
effect on bisphosphonate-induced phosphorylation of ERKs (ERK1/2): abolished

C[C@@H]1C[C@H]2[C@@H]3CCC4=CC(=O)C=C[C@]4(C)[C@@]3(F)[C@@H](O)C[C@]2(C)[C@@]1(O)C(=O)CO [dexamethasone]
concentrations giving pro-apoptotic effects (MLO-Y4 osteocytic cells; MLO-Y4 cells): 10^−7-10^−5 M
% of TUNEL positive cells (osteocytic MLO-Y4 cells): 11.87* %
Number of TUNEL positive cells (osteocytic MLO-Y4 cells): 66
number of TUNEL negative cells (osteocytic MLO-Y4 cells): 490

C[C@@]12CCC[C@H]1[C@@H]1CCc3cc(O)ccc3[C@H]1CC2 [estratriene-3-ol]
anti-apoptotic effects on osteoblastic cells in vitro and osteocytic cells [1]: potent anti-apoptotic effects

COc1cc([C@@H]2c3cc4c(cc3[C@@H](O[C@@H]3O[C@@H]5CO[C@@H](C)O[C@H]5[C@H](O)[C@H]3O)[C@H]3COC(=O)[C@H]23)OCO4)cc(OC)c1O [etoposide]
percentage of cells stained with trypan blue (induction of apoptosis) (MLO-Y4 osteocytic cells): A similar effect was obtained
induction of apoptosis of osteoblastic cells [3]: induced apoptosis

CN(C)CCC(O)(P(=O)(O)O)P(=O)(O)O [olpadronate]
inhibition of glucocorticoid-induced apoptosis (MLO-Y4 osteocytic cells; 1 h pretreatment): Comparable responses
proportion of cells exhibiting chromatin condensation and/or nuclear fragmentation versus untreated [2]: no significant differences
antiresorptive activity / effect on osteoclast (osteoclast): effective inhibitor of the osteoclast and of bone resorption

NCCC(O)(P(=O)(O)O)P(=O)(O)O [pamidronate]
inhibition of glucocorticoid-induced apoptosis (MLO-Y4 osteocytic cells; 1 h pretreatment): Comparable responses
proportion of cells exhibiting chromatin condensation and/or nuclear fragmentation versus untreated [2]: no significant differences

C[C@]12C=CC(=O)C=C1CC[C@@H]1[C@@H]2[C@@H](O)C[C@@]2(C)[C@H]1CC[C@]2(O)C(=O)CO [prednisolone]
Spinal BMD (% change) ([4]; DEXA): −12.48 ± 3.77 % change
Apoptotic osteoblasts (%) ([4]; vertebral cancellous bone): 19.79 ± 5.17 %
Apoptotic osteocytes (%) ([4]; vertebral cancellous bone): 2.37 ± 0.87%

Asp-Glu-Val-Asp-aldehide (DEVD-aldehyde) [DEVD-CHO]
prevention of the increase in cell membrane permeability detected by trypan blue (MLO-Y4 osteocytic cells; 50 nM DEVD-CHO 1 h before pro-apoptotic agents): prevented

B1: TNF-α: Recombinant murine TNF-α, an activator of death receptors (protein, UniProt P06804 80-235, looked up)
Tumor necrosis factor, …: LRSSSQNSSDKPVAHVVANHQVEEQLEWLSQRANALLANGMDLKDNQLVVPADGLYLVYSQVLFKGQGCPDYVLLTHTVSRFAISYQEKVNLLSAVKSPCPKDTPEGAELKPWYEPIYLGGVFQLEKGDQLSAEVNLPKYLDFAESGQVYFGVIAL
modifications: Tumor necrosis factor, soluble form
percentage of cells stained with trypan blue (induction of apoptosis) (MLO-Y4 osteocytic cells): A similar effect was obtained
induction of apoptosis of osteoblastic cells [3]: induced apoptosis
